Experimental data: Sander's compilation of Henry's law constants (doi:10.1016/j.chroma.2004.12.027)

assay: Henry solubility constant Hcp at 298.15 K (mol/(m3 Pa)); settings: reference: Diaz et al. (2005)

| SMILES | Henry solubility constant Hcp |
| --- | --- |
| COc1c(Cl)ccc(Cl)c1Cl [1,2,4-trichloro-3-methoxybenzene] | 0.011 |
| COc1c(Br)ccc(Br)c1Br [1,3,4-tribromo-2-methoxybenzene] | 0.0052 |
| COc1c(Br)cc(Br)cc1Br [1,3,5-tribromo-2-methoxybenzene] | 0.019 |
| COc1c(Cl)cc(Cl)cc1Cl [1,3,5-trichloro-2-methoxybenzene] | 0.0044 |
| COc1c(Br)ccc(Cl)c1Br [2,6-dibromo-3-chloro-1-methoxybenzene] | 0.0074 |
| COc1c(Br)cc(Cl)cc1Br [2,6-dibromo-4-chloro-1-methoxybenzene] | 0.02 |
| COc1c(Cl)cc(Cl)cc1Br [2-bromo-4,6-dichloro-1-methoxybenzene] | 0.0082 |
| COc1c(Cl)ccc(Br)c1Cl [3-bromo-2,6-dichloro-1-methoxybenzene] | 0.011 |
| COc1c(Cl)cc(Br)cc1Cl [4-bromo-2,6-dichloro-1-methoxybenzene] | 0.012 |
| COc1c(Cl)ccc(Cl)c1Br [6-bromo-2,5-dichloro-1-methoxybenzene] | 0.0077 |
